Reference: patent publication US20260274892A1, “MACROCYCLIC BROAD SPECTRUM ANTIBIOTICS” (RQx Pharmaceuticals, Inc., priority 2017, published 2026)

System: Escherichia coli ATCC 25922
Assay: Minimum inhibitory concentration (MIC), CLSI broth micro-dilution, E. coli
Type: cell-based
Settings: Escherichia coli, ATCC25922, 22 h, Table 6, cation adjusted Mueller Hinton Broth + 0.002% Tween-80, 35° C.
How it was run: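 Colonies grown 20 h at 35° C on Trypticase Soy agar (MRSA) or Luria agar (E. coli) were suspended in cation-adjusted Mueller Hinton broth with 0.002% Tween-80. Suspensions were added at OD600 0.0005 to 10-point twofold compound dilutions, then incubated 22 h at 35° C.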

Q: How did the MIC turn out when Cc1nc(-c2ccc(OCCC(C)(C)C)cc2)nc(N)c1C(=O)N[C@@H](CCN)C(=O)N(C)[C@@H]1C(=O)N[C@@H](C)C(=O)N[C@H](C(=O)NCC#N)Cc2ccc(OCCCN)c(c2)-c2cc1ccc2OCCCN (racemic) [Compound 436, rac-(8S,11S,14S)-3,18-bis(3-aminopropoxy)-N-(cyanomethyl)-11-methyl-14-[methyl-[rac-(2S)-4-amino-2-[[4-amino-2-[4-(3,3-dimethylbutoxy)phenyl]-6-methyl-pyrimidine-5-carbonyl]amino]butanoyl]amino]-10,13-dioxo-9,12-diazatricyclo[13.3.1.12,6]icosa-1(18),2(20),3,5,15(19),16-hexaene-8-carboxamide] was run?
A: 0.063 µM

Same assay, conditions: Escherichia coli, ATCC25922, Table 6, cation adjusted Mueller Hinton Broth + 0.002% Tween-80, 35° C., 22 hours

Q: How did the MIC turn out when C[C@@H]1NC(=O)[C@@H](N(C)C(=O)[C@H](CCN)NC(=O)c2cc([N+](=O)[O-])c(-c3ccc(C(C)(C)C)cc3)nc2N)c2ccc(OCCN)c(c2)-c2cc(ccc2OCCN)C[C@@H](C(=O)NCC#N)NC1=O (racemic) [Compound 415, rac-(8S,11S,14S)-3,18-bis(2-aminoethoxy)-N-(cyanomethyl)-11-methyl-14-[methyl-[rac-(2S)-4-amino-2-[[2-amino-6-(4-tert-butylphenyl)-5-nitro-pyridine-3-carbonyl]amino]butanoyl]amino]-10,13-dioxo-9,12-diazatricyclo[13.3.1.12,6]icosa-1(18),2(20),3,5,15(19),16-hexaene-8-carboxamide] was run?
A: 1.5 µM

Q: How did the MIC turn out when CC(C)Cc1ccc(-c2ncc(C(=O)N[C@@H](CCN)C(=O)N(C)[C@@H]3C(=O)N[C@@H](C)C(=O)N[C@H](C(=O)NCC#N)Cc4ccc(OCCN)c(c4)-c4cc3ccc4OCCN)c(C(F)F)n2)cc1 (racemic) [Compound 418, rac-(8S,11S,14S)-3,18-bis(2-aminoethoxy)-N-(cyanomethyl)-11-methyl-14-[methyl-[rac-(2S)-4-amino-2-[[4-(difluoromethyl)-2-(4-isobutylphenyl)pyrimidine-5-carbonyl]amino]butanoyl]amino]-10,13-dioxo-9,12-diazatricyclo[13.3.1.12,6]icosa-1(18),2(20),3,5,15(19),16-hexaene-8-carboxamide] was run?
A: 0.064 µM

Q: C[C@@H]1NC(=O)[C@@H](N(C)C(=O)[C@H](CCN)NC(=O)c2cnc(-c3ccc(C(C)(C)C)cc3)nc2OCC(=O)O)c2ccc(OCCN)c(c2)-c2cc(ccc2OCCN)C[C@@H](C(=O)NCC#N)NC1=O (racemic) [Compound 420, 2-[2-(4-tert-butylphenyl)-5-[[rac-(1S)-3-amino-1-[methyl-[rac-(7S,10S,13S)-3,18-bis(2-aminoethoxy)-13-(cyanomethylcarbamoyl)-10-methyl-8,11-dioxo-9,12-diazatricyclo[13.3.1.12,6]icosa-1(19),2,4,6(20),15,17-hexaen-7-yl]carbamoyl]propyl]carbamoyl]pyrimidin-4-yl]oxyacetic acid] was tested. Which MIC did it give?
A: 3 µM

Q: For Cc1nc(-c2ccc(C(C)(C)C)cc2)ncc1C(=O)N[C@@H](CCN)C(=O)N(C)[C@@H]1C(=O)N[C@@H](C)C(=O)N[C@H](C(=O)NCC#N)Cc2ccc(OCCCN)c(c2)-c2cc1ccc2OCCCN (racemic) [Compound 433, rac-(8S,11S,14S)-3,18-bis(3-aminopropoxy)-N-(cyanomethyl)-11-methyl-14-[methyl-[rac-(2S)-4-amino-2-[[2-(4-tert-butylphenyl)-4-methyl-pyrimidine-5-carbonyl]amino]butanoyl]amino]-10,13-dioxo-9,12-diazatricyclo[13.3.1.12,6]icosa-1(18),2(20),3,5,15(19),16-hexaene-8-carboxamide], which MIC is on record?
A: 0.096 µM

Q: Which MIC does the source give for CNC(=N)NCCOc1ccc2cc1-c1cc(ccc1OCCNC(=N)NC)[C@H](N(C)C(=O)[C@H](CCN)NC(=O)c1c(C)nc(-c3ccc(C(C)(C)C)cc3)nc1C)C(=O)N[C@@H](C)C(=O)N[C@H](C(=O)NCC#N)C2 (racemic) [Compound 441, rac-(8S,11S,14S)-N-(cyanomethyl)-11-methyl-3,18-bis[2-[(N-methylcarbamimidoyl)amino]ethoxy]-14-[methyl-[rac-(2S)-4-amino-2-[[2-(4-tert-butylphenyl)-4,6-dimethyl-pyrimidine-5-carbonyl]amino]butanoyl]amino]-10,13-dioxo-9,12-diazatricyclo[13.3.1.12,6]icosa-1(18),2(20),3,5,15(19),16-hexaene-8-carboxamide] here?
A: 0.38 µM

Q: For Cc1nc(-c2ccc(C(C)(C)C)cc2)ncc1C(=O)N[C@@H](CCN)C(=O)N(C)[C@@H]1C(=O)N[C@@H](C)C(=O)N[C@H](C(=O)NCC#N)Cc2ccc(OCCN(C)C)c(c2)-c2cc1ccc2OCCN(C)C (racemic) [Compound 442, rac-(8S,11S,14S)-N-(cyanomethyl)-3,18-bis[2-(dimethylamino)ethoxy]-11-methyl-14-[methyl-[rac-(2S)-4-amino-2-[[2-(4-tert-butylphenyl)-4-methyl-pyrimidine-5-carbonyl]amino]butanoyl]amino]-10,13-dioxo-9,12-diazatricyclo[13.3.1.12,6]icosa-1(18),2(20),3,5,15(19),16-hexaene-8-carboxamide], which MIC is on record?
A: 0.91 µM

Q: Which MIC does the source give for CCCCCCCCc1ccc(C(=O)N[C@@H](CCNS(N)(=O)=O)C(=O)N(C)[C@@H]2C(=O)N[C@@H](C)C(=O)N[C@H](C(=O)NCC#N)Cc3ccc(OCCN)c(c3)-c3cc2ccc3OCCN)c(C)c1 (racemic) [Compound 449, rac-(8S,11S,14S)-3,18-bis(2-aminoethoxy)-N-(cyanomethyl)-11-methyl-14-[methyl-[rac-(2S)-2-[(2-methyl-4-octyl-benzoyl)amino]-4-(sulfamoylamino)butanoyl]amino]-10,13-dioxo-9,12-diazatricyclo[13.3.1.12,6]icosa-1(18),2(20),3,5,15(19),16-hexaene-8-carboxamide] here?
A: 0.5 µM

Q: CCCCCCCCc1ccc(C(=O)N[C@@H](CCCNC(N)=O)C(=O)N(C)[C@@H]2C(=O)N[C@@H](C)C(=O)N[C@H](C(=O)NCC#N)Cc3ccc(OCCN)c(c3)-c3cc2ccc3OCCN)c(C)c1 (racemic) [Compound 450, rac-(8S,11S,14S)-3,18-bis(2-aminoethoxy)-N-(cyanomethyl)-11-methyl-14-[methyl-[rac-(2S)-2-[(2-methyl-4-octyl-benzoyl)amino]-5-ureido-pentanoyl]amino]-10,13-dioxo-9,12-diazatricyclo[13.3.1.12,6]icosa-1(18),2(20),3,5,15(19),16-hexaene-8-carboxamide] was tested. Which MIC did it give?
A: 2.1 µM

Q: For CONCC[C@H](NC(=O)c1cnc(-c2ccc(C(C)(C)C)cc2)nc1C)C(=O)N(C)[C@@H]1C(=O)N[C@@H](C)C(=O)N[C@H](C(=O)NCC#N)Cc2ccc(OCCN)c(c2)-c2cc1ccc2OCCN (racemic) [Compound 460, rac-(8S,11S,14S)-3,18-bis(2-aminoethoxy)-N-(cyanomethyl)-11-methyl-14-[methyl-[rac-(2S)-2-[[2-(4-tert-butylphenyl)-4-methyl-pyrimidine-5-carbonyl]amino]-4-(methoxyamino)butanoyl]amino]-10,13-dioxo-9,12-diazatricyclo[13.3.1.12,6]icosa-1(18),2(20),3,5,15(19),16-hexaene-8-carboxamide], which MIC is on record?
A: 4.1 µM
